Assay results as given in patent US20260158050A1, “USE OF EIDD-1931 OR DERIVATIVE THEREOF IN TREATMENT OF ENTEROVIRUS INFECTION” (ACADEMY OF MILITARY MEDICAL SCIENCES, priority 2022, published 2026).

Key:
EV-A71 H strain = experiment: protection against cytopathic effect (CPE) caused by EV-A71, Cell-Titer Glo; type: cell-based; details: for EC50: EV-A71 H strain, 3 days; for inhibition of the cytopathic effect caused by the virus: multiple cell lines infected with EV-A71 (FIG. 2)
Method: Human liver tumor cells (Huh7 cells) used in the experiment were purchased from Chinese National Infrastructure of Cell Line Resource. Human […] cells (RD cells) and African green monkey kidney cells (Vero cells) were purchased from ATCC (Cat. No.: CCL-136 and CCL-81, respectively). The above cells were cultured in a cell culture incubator at 37° C. and 5% CO2. The complete culture medium used for cell growth was DMEM high-glucose culture medium (purchased from Gibco, Cat. […] No.: 16000044) and penicillin-streptomycin (purchased from Gibco, Cat. No.: 2321152). The maintenance culture medium used for cell culture was DMEM high-glucose culture medium supplemented with 2% FBS and penicillin-streptomycin. H strain of EV-A71 was purchased from ATCC (Cat. No.: VR-1432). Compounds EIDD-1931 and EIDD-2801 were purchased from Shanghai Topscience Biochemical Technology Co., Ltd. (Cat Nos: […] and […], respectively), and their structures were shown in FIG. 1. Cell-Titer Glo® Luminescent Cell Viability Assay Solution was purchased from Promega (Cat. No.: G7572). The microplate reader, model Spectra Max M5, was purchased from Molecular Devices. Huh7 cells, RD cells, and Vero cells were seeded into a 96-well plate with a white wall and a transparent bottom at a density of about 1.0×10^4 per well and cultured at 37° C. and 5% CO2 for 24 hours. Then, the EV-A71 virus was diluted with cell maintenance solution and added to the 96-well plate to reach a final concentration of 100TCID50. […] After 3 days, the supernatant was discarded, and the diluted Cell-Titer Glo® Luminescent Cell Viability Assay Solution was added. The cells were shaken and lysed for 5 minutes in the dark, and then allowed to stand for 3 minutes. Finally, the luminescence value of each well was measured using the microplate reader. The formula for calculating the inhibition rate of the test compounds against virus was: [formula] Origin9.0 software was used to fit the inhibition rate-concentration S-shaped curve and calculate the half-maximal effective concentrations (EC50) of the test compounds. The half-cytotoxic concentrations (CC50) of the test compounds were calculated using the same method, and the select index (SI) was calculated based on EC50 and CC50: SI=CC50/EC50.

EV-A71 [1] = experiment: infectious virus particle formation in supernatant (TCID50 detection); type: cell-based; details: supernatant of RD cells, TCID50 (FIG. 3 A and C)
EV-A71 AH08/06 = experiment: CPE protection, EV-A71 AH08/06 strain; type: cell-based; details: EV-A71 AH08/06, RD cells
EV-D68 STL-2014-12 = experiment: CPE protection, EV-D68 STL-2014-12 strain; type: cell-based; details: for EC50: EV-D68 STL-2014-12, RD cells
CV-A6 TW-2007-00141 = experiment: CPE protection, CV-A6 TW-2007-00141 strain; type: cell-based; details: CV-A6 TW-2007-00141, RD cells
MERS-CoV or SARS-CoV = details: mice, cited from earlier work
EV-A71 [2] = experiment: time series experiment, intracellular viral RNA load in RD cells; type: cell-based; details: 10 μM, 0.01 MOI (FIG. 5)
Method: The specific steps were as follows: RD cells were seeded in a 12-well plate at a density of about 4.0×10^5 per well and cultured at 37° C. and 5% CO2 for 24 hours. Subsequently, the test compound EIDD-1931, the positive compound NITD008 and the EV-A71 virus were diluted to the corresponding concentrations with the cell maintenance medium, and then the pre-diluted compound or virus was added at the time point as shown in A in FIG. 5. After 30 hours of continuous culture, the cell supernatant was discarded, the intracellular RNA was extracted, and the intracellular viral RNA load was detected by qRT-PCR. The intracellular RNA extraction method and qRT-PCR system and reaction conditions were the same as described above.

various enteroviruses = experiment: broad-spectrum anti-enteroviral activity (CPE), summary over viruses; type: cell-based; details: all viruses of Table 1; read-out: EC50 values against various enteroviruses
Method: In this experiment, the experiment on protection of EIDD-1931 and EIDD-2801 against CPE caused by EV-A71 virus AH08/06 strain, EV-D68 virus STL-2014-12 strain, CV-A6 TW-2007-00141 strain, and CV-A16 190-D1 strain were all performed by using RD cells. The experiments on protection of EIDD-1931 and EIDD-2801 against CPE caused by CV-B3 Nancy strain were performed by using Vero cells. The specific experimental methods were the same as those in Example 1.

[3] = tested on: CHIKV, VEEV, RSV, HCV, NV, IAV, IBV, EBOV, MERS-CoV, SARS-CoV-2; details: background art; cited from earlier work

SMILES | EC50 (EV-A71 H strain; Huh7 cells) [µM] | EC50 (EV-A71 H strain; RD cells) [µM] | EC50 (EV-A71 H strain; Vero cells) [µM] | SI (CC50/EC50) (EV-A71 H strain; Huh7 cells) | SI (CC50/EC50) (EV-A71 H strain; RD cells) | SI (CC50/EC50) (EV-A71 H strain; Vero cells) | inhibition of the cytopathic effect caused by the virus (EV-A71 H strain) | inhibition of production of infectious viral particles (EV-A71 [1]) | EC50 (EV-A71 AH08/06) [µM] | inhibitory activity against EV-V68 (EV-D68 STL-2014-12) | EC50 (EV-D68 STL-2014-12) [µM] | EC50 (CV-A6 TW-2007-00141) [µM] | lung damage caused by MERS-CoV or SARS-CoV infections (MERS-CoV or SARS-CoV; preventive use) | degree of lung damage and weight loss (MERS-CoV or SARS-CoV; therapeutic use within 12 hours or 24 hours after infection) | inhibition on the adsorption and entry of the virus (EV-A71 [2]) | stage of virus infection at which the antiviral effect is exerted (EV-A71 [2]) | EC50 (various enteroviruses) [µM] | inhibitory effects against CHIKV, VEEV, RSV, HCV, NV, IAV, IBV, EBOV, MERS-CoV and SARS-CoV-2 [3]
CC(C)C(=O)OC[C@H]1O[C@@H](n2cc/c(=N\O)[nH]c2=O)[C@H](O)[C@@H]1O [EIDD-2801] | 35.6 ± 0.47 | 70.1 ± 4.4 | 88.5 ± 3.18 | > 2.81 | > 1.43 | > 1.13 | dose-dependently inhibit | inhibited | 30.3 ± 0.55 | low inhibitory activity | 86.2 ± 9.17 | > 100 | prevent lung damage | significantly reduce |  |  |  | 
O=c1nc(NO)ccn1[C@@H]1O[C@H](CO)[C@@H](O)[C@H]1O [EIDD-1931] | 4.43 ± 0.33 | 5.13 ± 0.56 | 7.04 ± 0.38 | 7.69 | 15.69 | 2.0 | dose-dependently inhibit | inhibited | 2.79 ± 0.89 |  | 9.69 ± 0.04 | 17.7 ± 0.38 |  |  | no obvious inhibition | viral replication stage | < 20 | good inhibitory effects
